How the values were obtained:
cardiovascular disease = conditions: middle-aged or elderly; cited from earlier work
[1] = antioxidant activity testing (DPPH scavenging activity); type: biochemical; conditions: corresponds to ppm VitE
Text: According to the present invention, the products of the Beta-carotene, lutein, lycopene, and of mixture of these three (in 0.5:4:4 optimal weight ratio) from the Allied Biochemical Industrial Co., Ltd were sent to “Food Industrial Research And Development Institute” (331 Shih-Pin Road, Hsinchu, 300 Taiwan) for antioxidant activity testing (DPPH scavenging activity).

[2] = tested on: thiobarbituric acid-reactive substances (TBARS), lipid peroxidation; conditions: single carotenoid; Control (no antioxidants) 100 ± 9; cited from earlier work
tissue factor = conditions: added into micro-emulsion; 0.5, 2 and 10 μmol/L; P<0.01; cited from earlier work
macular degeneration = conditions: person ingesting 6 mg per day; cited from earlier work
myocardial infarction = conditions: contrast of the 10th and 90th percentiles of carotenoid level in adipose tissue; cited from earlier work

| Structure (SMILES) | reduction of the risk of cardiovascular disease (cardiovascular disease) [%] | Scavenging rate/g [1] | TBARS (%) measured [2] [%] | tissue factor activity (tissue factor) | lower risk for macular degeneration (macular degeneration) [%] | odds ratio, myocardial infarction (myocardial infarction) |
| --- | --- | --- | --- | --- | --- | --- |
| CC1=C(/C=C/C(C)=C/C=C/C(C)=C/C=C/C=C(C)/C=C/C=C(C)/C=C/C2=C(C)CCCC2(C)C)C(C)(C)CCC1 [β-carotene] | 45 | correspond to 7.08 × 10^3 ppm VitE | 73 ± 9 | suppress tissue factor activity | – | – |
| CC1=C[C@H](O)CC(C)(C)[C@H]1/C=C/C(C)=C/C=C/C(C)=C/C=C/C=C(C)/C=C/C=C(C)/C=C/C1=C(C)C[C@@H](O)CC1(C)C [Lutein] | – | correspond to 7.69 × 10^2 ppm VitE | 77 ± 9 | suppress tissue factor activity | 43 | – |
| CC(C)=CCC/C(C)=C/C=C/C(C)=C/C=C/C(C)=C/C=C/C=C(C)/C=C/C=C(C)/C=C/C=C(\C)CCC=C(C)C [Lycopene] | – | correspond to 2.35 × 10^4 ppm VitE | 25 ± 10 | suppress tissue factor activity | – | 0.52 |
